Experimental data reported in patent publication US20260201347A1, “ARTIFICIAL BIFUNCTIONAL ENZYME COMPRISING A MYELOPEROXIDASE ACTIVITY AND A GLUCOSE OXIDASE ACTIVITY AND APPLICATIONS THEREOF” (UNIVERSITÉ DE BORDEAUX, priority 2022, published 2026).
“And” between values parts separate entries of the source, which are not always exact repeats. Identical values can stand only once. Like-named read-outs stand apart in the source and are kept apart here.

What was measured:
[1] = biological target: RbMPO-GGGGGGGG-GOx chimera (Rhodopirellula baltica myeloperoxidase, SEQ ID NO: 10; linker SEQ ID NO: 9; Penicillium amagasakiens glucose oxidase, SEQ ID NO: 12) (Penicillium amagasakiense, UniProt P81156); details: 20 mM NaCl, pH7.5; for Km: read-out: KM H2O2; for Ki: read-out: Ki H2O2, substrate inhibition
Method: (§1) The fluorescent probe aminophenyl fluorescein (APF) (λexcitation=485 nm and λemission=525 nm) was used to measure the HOCl production by the chimera, as a measure of its chlorination activity. Three tests were performed: (1) at different glucose concentrations (0, 1, 2, 3, 4, 5, 6, 8, 10, 15, 20 mM) with fixed concentrations of chimera (1 μM) and NaCl (20 mM); (2) at different NaCl concentrations (0, 10, 20, 50, 100, 250, 500, 750 μM and 1 mM) with fixed concentrations of chimera (1 μM) and glucose (20 mM); (3) at different H2O2 concentrations (0, 0.01, 0.02, 0.05, 0.079, 0.1, 0.25, 0.5, 0.75, 1, 2, 4, 6, 8, 10, 20, 40, 60, 80, 100, 200, 500 mM) with fixed concentrations of chimera (1 μM) and NaCl (20 mM). For all experiments, 10 μM APF was used in each assay with 50 mM NaPi buffer pH7.5 QSP 20 μL (384-well plate). Each experiment was performed in triplicate. A 10-30 min. kinetic was performed for each range value and the increase rate of fluorescence intensity was compared to the standard fluorescein range. The measured fluorescence per second was thus proportional to the amount of fluorescein, which in turn was proportional to the amount of HOCl produced by the chimeras.
(§2) Steady-state kinetic parameters were determined by adjustment of experimental data to the following equations depending on the appearance of saturation curves: […]
(§3) In order to determine the RbMPO activity of the chimeras, a H2O2 concentration range was performed at a fixed concentration of NaCl. HOCl reacted with APF probe and apparition of fluorescein was monitored.

[2] = biological target: T1, RbMPO-GOx chimera, no linker (Rhodopirellula baltica myeloperoxidase, SEQ ID NO: 10, fused to Penicillium amagasakiens glucose oxidase, SEQ ID NO: 12) (Penicillium amagasakiense, UniProt P81156); details: monomer, 20 mM NaCl, pH7.5
Method: as §1, §2, §3

[3] = biological target: T2, RbMPO-LEGGEAEA-GOx chimera (Rhodopirellula baltica myeloperoxidase, SEQ ID NO: 10; linker SEQ ID NO: 4; Penicillium amagasakiens glucose oxidase, SEQ ID NO: 12) (Penicillium amagasakiense, UniProt P81156)
Method: as §1, §2, §3

[4] = biological target: RbMPO-LEKREAEA-GOx chimera (Rhodopirellula baltica myeloperoxidase, SEQ ID NO: 10; linker SEQ ID NO: 7; Penicillium amagasakiens glucose oxidase, SEQ ID NO: 12) (Penicillium amagasakiense, UniProt P81156); details: trimer, 20 mM NaCl, pH7.5
Method: as §1, §2, §3

[5] = biological target: RbMPO-LEKRPEAEA-GOx chimera (Rhodopirellula baltica myeloperoxidase, SEQ ID NO: 10); linker SEQ ID NO: 8; Penicillium amagasakiens glucose oxidase, SEQ ID NO: 12 (Penicillium amagasakiense, UniProt P81156); details: 20 mM NaCl, pH7.5; for Km: read-out: KM H2O2; for Ki: read-out: Ki H2O2, substrate inhibition
Method: as §1, §2, §3

[6] = tested on: RbMPO-LGKRGAGA-GOx chimera (Rhodopirellula baltica myeloperoxidase, SEQ ID NO: 10; linker SEQ ID NO: 5; Penicillium amagasakiens glucose oxidase, SEQ ID NO: 12); details: result in words
Method: as §1, §2

[7] = biological target: RbMPO-LEKREAEALEKREAEA-GOx chimera (Rhodopirellula baltica myeloperoxidase, SEQ ID NO: 10); linker SEQ ID NO: 6; Penicillium amagasakiens glucose oxidase, SEQ ID (Penicillium amagasakiense, UniProt P81156); details: 20 mM NaCl, pH7.5; for Km: read-out: KM H2O2; for Ki: read-out: Ki H2O2, substrate inhibition
Target sequence in this assay (P81156 with tags, fused parts or gaps): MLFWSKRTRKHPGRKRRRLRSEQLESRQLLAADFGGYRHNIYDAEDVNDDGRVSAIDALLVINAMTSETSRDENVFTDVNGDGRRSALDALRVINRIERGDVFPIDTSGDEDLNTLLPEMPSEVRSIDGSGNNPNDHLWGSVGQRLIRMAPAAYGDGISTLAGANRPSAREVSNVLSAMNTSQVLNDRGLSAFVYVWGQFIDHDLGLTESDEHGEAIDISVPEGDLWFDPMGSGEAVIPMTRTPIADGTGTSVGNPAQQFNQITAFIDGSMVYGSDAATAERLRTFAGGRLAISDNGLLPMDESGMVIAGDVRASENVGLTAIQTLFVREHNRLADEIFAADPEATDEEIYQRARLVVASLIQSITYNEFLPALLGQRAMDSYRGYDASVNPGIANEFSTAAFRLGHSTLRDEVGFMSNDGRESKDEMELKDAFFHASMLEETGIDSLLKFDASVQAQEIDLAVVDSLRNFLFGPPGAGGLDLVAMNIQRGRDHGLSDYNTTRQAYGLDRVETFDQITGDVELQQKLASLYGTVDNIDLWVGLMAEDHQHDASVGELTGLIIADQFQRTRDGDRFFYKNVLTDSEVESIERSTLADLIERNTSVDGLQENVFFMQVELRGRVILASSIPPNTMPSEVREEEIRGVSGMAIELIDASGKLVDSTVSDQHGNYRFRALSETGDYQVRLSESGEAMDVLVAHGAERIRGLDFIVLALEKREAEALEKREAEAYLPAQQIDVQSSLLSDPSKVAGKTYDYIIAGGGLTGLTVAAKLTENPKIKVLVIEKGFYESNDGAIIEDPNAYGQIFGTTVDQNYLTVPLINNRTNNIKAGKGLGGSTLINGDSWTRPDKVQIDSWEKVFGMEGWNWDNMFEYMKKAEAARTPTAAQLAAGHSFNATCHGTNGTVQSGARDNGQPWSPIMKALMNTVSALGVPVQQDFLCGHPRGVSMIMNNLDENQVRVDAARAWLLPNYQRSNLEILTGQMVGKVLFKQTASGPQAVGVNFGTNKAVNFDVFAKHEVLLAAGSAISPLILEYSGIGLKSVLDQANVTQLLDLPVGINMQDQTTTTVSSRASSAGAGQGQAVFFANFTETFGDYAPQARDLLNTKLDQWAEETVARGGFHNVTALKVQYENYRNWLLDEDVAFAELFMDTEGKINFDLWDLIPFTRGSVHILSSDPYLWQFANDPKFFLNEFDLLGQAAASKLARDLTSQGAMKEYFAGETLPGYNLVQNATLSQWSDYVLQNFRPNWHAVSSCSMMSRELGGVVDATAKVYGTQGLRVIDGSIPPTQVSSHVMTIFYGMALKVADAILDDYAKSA
Method: The fluorescent probe aminophenyl fluorescein (APF) (λexcitation=485 nm and λemission=525 nm) was used to measure the HOCl production by the chimera, as a measure of its chlorination activity. […] For all experiments, 10 μM APF was used in each assay with 50 mM NaPi buffer pH7.5 QSP 20 μL (384-well plate). Each experiment was performed in triplicate. A 10-30 min. kinetic was performed for each range value and the increase rate of fluorescence intensity was compared to the standard fluorescein range. The measured fluorescence per second was thus proportional to the amount of fluorescein, which in turn was proportional to the amount of HOCl produced by the chimeras.

[8] = biological target: T2, RbMPO-LEGGEAEA-GOx chimera (Rhodopirellula baltica myeloperoxidase, SEQ ID NO: 10; linker SEQ ID NO: 4; Penicillium amagasakiens glucose oxidase, SEQ ID NO: 12); details: monomer 1, NaSCN as a substrate, 50 mM glucose, pH6, 37° C.
Method: Initial rate measurements under steady state conditions were made with a BioLogic SFM400 stopped-flow by using a single-mixing mode and Xe/Hg lamp and a TC100/10 cell. One syringe was filled with the chimera and another one with glucose and NaSCN. The concentrations of the chimera and glucose were fixed (300 nM and 50 mM, respectively), and measurement was carried out at 37° C. and at 240 nm. The appearance of −OSCN (hypothiocyanate) was measured at 240 nm at 37° C. in a 50 mM pH6 sodium phosphate buffer. At least five shots of 120 s were performed for each value of the NaSCN substrate range with the following sample period: 20 μs, 20 ms, 20 ms with 2000 points per period. Slopes were calculated from shots average for each concentration and kss (s^−1) were determined using slopes with the following formula:
The molar extinction coefficient of −OSCN is ε−OSCN=[…]. Collecting data were analysed with Origin software and kss values were fitted with Michaëlis-Menten equation.

[9] = biological target: T3, RbMPO-LEKREAEALEKREAEA-GOx chimera (Rhodopirellula baltica myeloperoxidase, SEQ ID NO: 10); linker SEQ ID NO: 6; Penicillium amagasakiens glucose oxidase, SEQ ID (Penicillium amagasakiense, UniProt P81156); experiment: Coupled active sites, HOCl production from glucose, APF assay (Table 9), linker LEKREAEALEKREAEA; assay type: biochemical; details: dimer/monomer; fixed NaCl 20 mM, pH7.5
T3 construct: 6His (in the pET21a vector behind the XhoI site); made in house; host or cells: E. coli BL21Star (DE3)
Method: (§4) Each experiment was performed in triplicate.
(§5) The activity of the two active sites was then assessed in conjunction to each other (FIG. 1).
(§6) Briefly, the aim was to measure the production of HOCl from glucose and NaCl as respective substrates of the enzymes, using the APF probe. Two types of kinetics were performed: • i) kinetics at various concentrations of glucose and a fixed concentration of NaCl, and • ii) kinetics at various concentration of NaCl and a fixed concentration of glucose.

[10] = biological target: T4, RbMPO-LGKRGAGA-GOx chimera (Rhodopirellula baltica myeloperoxidase, SEQ ID NO: 10; linker SEQ ID NO: 5; Penicillium amagasakiens glucose oxidase, SEQ ID NO: 12) (Penicillium amagasakiense, UniProt P81156); experiment: Coupled active sites, HOCl production from glucose, APF assay (Table 9), linker LGKRGAGA; assay type: biochemical; details: trimer; fixed NaCl 20 mM, pH7.5
T4 construct: 6His (in the pET21a vector behind the XhoI site); made in house; host or cells: E. coli BL21Star (DE3)
Method: as §4, §5, §6

[11] = biological target: T1, RbMPO-GOx chimera, no linker (Rhodopirellula baltica myeloperoxidase, SEQ ID NO: 10, fused to Penicillium amagasakiens glucose oxidase, SEQ ID NO: 12); experiment: Coupled active sites, HOCl production from glucose, APF assay (Table 9), chimera without linker; assay type: biochemical; design: heme and FAD reconstituted; monomer; GOx mature part (P81156 19-605); details: monomer; fixed NaCl 20 mM, pH7.5
Method: as §4, §5, §6
Target sequence in this assay (P81156 19-605, change not shown): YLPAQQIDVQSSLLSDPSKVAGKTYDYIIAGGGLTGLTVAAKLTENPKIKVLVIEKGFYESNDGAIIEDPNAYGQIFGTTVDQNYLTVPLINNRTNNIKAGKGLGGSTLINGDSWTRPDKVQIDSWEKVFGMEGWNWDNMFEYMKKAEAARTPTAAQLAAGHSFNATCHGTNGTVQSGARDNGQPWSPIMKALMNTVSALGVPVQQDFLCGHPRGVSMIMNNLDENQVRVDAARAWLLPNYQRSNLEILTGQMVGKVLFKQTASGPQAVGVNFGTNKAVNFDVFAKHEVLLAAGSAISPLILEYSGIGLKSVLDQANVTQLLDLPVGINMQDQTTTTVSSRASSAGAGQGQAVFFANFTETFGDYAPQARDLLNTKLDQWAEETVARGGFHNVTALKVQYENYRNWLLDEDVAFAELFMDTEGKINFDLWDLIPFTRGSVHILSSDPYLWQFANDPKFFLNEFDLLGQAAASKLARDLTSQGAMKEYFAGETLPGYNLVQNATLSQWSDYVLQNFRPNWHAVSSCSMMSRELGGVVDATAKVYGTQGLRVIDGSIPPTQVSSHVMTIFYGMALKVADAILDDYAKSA

[12] = biological target: T2, RbMPO-LEGGEAEA-GOx chimera (Rhodopirellula baltica myeloperoxidase, SEQ ID NO: 10; linker SEQ ID NO: 4; Penicillium amagasakiens glucose oxidase, SEQ ID NO: 12); experiment: Coupled active sites, HOCl production from glucose, APF assay (Table 9), linker LEGGEAEA; assay type: biochemical; design: 6His (in the pET21a vector behind the XhoI site); made in house; host or cells: E. coli BL21Star (DE3)
Method: as §4, §5, §6

[13] = read-out: Ki H2O2, substrate inhibition
[14] = mixture of oligomers, 15 mM glucose and 500 mM NaCl

RbMPO-LEKRPEAEA-GOx chimera (Rhodopirellula baltica myeloperoxidase, SEQ ID NO: 10); linker SEQ ID NO: 8; Penicillium amagasakiens glucose oxidase, SEQ ID NO: 12, sequence (P81156 with tags, fused parts or gaps): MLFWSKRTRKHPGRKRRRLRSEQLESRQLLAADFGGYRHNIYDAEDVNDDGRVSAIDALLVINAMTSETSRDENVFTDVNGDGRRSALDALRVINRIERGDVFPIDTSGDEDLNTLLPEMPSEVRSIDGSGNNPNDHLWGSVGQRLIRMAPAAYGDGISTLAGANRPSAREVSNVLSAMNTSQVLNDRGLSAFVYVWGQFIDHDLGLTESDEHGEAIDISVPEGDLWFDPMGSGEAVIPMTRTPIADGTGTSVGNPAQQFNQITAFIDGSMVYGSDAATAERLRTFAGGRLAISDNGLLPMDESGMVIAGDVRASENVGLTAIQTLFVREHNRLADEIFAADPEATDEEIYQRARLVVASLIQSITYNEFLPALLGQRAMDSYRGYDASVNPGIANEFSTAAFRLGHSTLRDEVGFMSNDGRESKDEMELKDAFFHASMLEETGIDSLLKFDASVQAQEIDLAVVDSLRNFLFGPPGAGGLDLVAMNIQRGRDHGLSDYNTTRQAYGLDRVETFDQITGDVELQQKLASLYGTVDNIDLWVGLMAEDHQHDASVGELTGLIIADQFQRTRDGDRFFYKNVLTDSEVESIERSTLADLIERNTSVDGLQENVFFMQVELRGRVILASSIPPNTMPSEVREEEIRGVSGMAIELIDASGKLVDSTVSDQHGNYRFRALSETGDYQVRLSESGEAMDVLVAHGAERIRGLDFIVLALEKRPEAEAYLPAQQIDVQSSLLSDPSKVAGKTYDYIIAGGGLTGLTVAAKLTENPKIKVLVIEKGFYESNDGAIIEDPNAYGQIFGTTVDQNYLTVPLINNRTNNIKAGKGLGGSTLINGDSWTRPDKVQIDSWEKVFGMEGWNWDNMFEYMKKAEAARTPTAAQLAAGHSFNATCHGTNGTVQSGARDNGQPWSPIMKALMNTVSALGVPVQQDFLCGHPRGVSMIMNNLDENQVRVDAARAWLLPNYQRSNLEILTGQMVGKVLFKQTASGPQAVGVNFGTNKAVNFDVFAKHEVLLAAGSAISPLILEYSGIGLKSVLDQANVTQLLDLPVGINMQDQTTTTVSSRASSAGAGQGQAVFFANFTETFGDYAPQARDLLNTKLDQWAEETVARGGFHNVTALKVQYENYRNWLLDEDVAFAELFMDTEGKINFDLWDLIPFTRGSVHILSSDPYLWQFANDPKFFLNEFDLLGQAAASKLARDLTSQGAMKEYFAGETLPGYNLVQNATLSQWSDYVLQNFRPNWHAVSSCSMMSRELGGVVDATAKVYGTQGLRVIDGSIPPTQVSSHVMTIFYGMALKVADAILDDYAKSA
T2 sequence (P81156 with tags, fused parts or gaps): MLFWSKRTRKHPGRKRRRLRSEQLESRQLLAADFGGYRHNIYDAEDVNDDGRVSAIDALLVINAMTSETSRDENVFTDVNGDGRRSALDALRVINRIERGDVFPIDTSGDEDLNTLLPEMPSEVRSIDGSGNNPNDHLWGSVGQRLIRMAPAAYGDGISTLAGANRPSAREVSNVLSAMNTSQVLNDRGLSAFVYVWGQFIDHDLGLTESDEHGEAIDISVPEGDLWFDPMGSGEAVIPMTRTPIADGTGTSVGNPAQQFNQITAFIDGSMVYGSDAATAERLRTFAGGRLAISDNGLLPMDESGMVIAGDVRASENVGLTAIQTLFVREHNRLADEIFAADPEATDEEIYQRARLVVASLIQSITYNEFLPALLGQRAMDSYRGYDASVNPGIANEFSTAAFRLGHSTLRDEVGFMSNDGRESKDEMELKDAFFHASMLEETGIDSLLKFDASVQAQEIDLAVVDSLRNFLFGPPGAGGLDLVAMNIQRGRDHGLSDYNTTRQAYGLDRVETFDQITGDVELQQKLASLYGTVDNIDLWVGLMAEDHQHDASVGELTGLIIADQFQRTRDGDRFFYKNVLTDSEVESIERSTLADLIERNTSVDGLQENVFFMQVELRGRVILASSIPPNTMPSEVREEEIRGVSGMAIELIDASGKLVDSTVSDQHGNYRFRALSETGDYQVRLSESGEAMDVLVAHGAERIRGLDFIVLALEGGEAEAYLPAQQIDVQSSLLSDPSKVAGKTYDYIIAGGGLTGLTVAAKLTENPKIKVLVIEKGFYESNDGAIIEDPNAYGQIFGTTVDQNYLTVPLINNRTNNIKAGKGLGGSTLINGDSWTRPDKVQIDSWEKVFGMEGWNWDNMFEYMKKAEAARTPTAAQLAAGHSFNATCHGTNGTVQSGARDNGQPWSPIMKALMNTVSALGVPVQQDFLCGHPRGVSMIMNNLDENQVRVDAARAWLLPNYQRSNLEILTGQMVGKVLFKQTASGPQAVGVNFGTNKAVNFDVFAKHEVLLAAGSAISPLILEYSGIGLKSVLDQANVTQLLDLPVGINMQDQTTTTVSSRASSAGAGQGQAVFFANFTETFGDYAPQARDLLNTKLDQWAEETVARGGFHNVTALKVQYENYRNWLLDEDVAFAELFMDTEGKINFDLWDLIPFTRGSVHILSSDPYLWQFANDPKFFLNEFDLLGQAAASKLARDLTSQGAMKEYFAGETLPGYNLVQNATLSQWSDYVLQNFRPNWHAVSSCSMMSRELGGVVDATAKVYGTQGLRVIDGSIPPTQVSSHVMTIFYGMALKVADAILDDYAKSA

In the case of `OO` [H2O2, hydrogen peroxide], the kcat ([1]; dimer/monomer) is reported as 0.00418 s⁻¹, the kcat/KM ([1]; dimer/monomer) is reported as 363.5 ± 382.3 M⁻¹ s⁻¹ and the kcat ([1]; excluded) is reported as 0.0001682 s⁻¹. For the same molecule, the kcat/KM ([1]; excluded) was 1 ± 0.6 M⁻¹ s⁻¹ and 0.998 ± 0.603 M⁻¹ s⁻¹, the kcat ([1]; monomer) was 0.0001798 s⁻¹ and the kcat/KM ([1]; monomer) was 38.3 ± 23.6 M⁻¹ s⁻¹. It also gave a Km ([1]; dimer/monomer) of 11.5 µM, a Km ([1]; excluded) of 168 ± 81 µM and a Km ([1]; monomer) of 4.7 µM. It also gave a Km ([1]; trimer) of 2.86 µM, a Ki ([1]; dimer/monomer) of 0.0329 mM and a Ki ([1]; monomer) of 13.1 ± 4.9 mM. It also gave a Ki ([1]; trimer) of 5.92 ± 3.22 mM, a kcat ([1]; trimer) of 0.0005086 s⁻¹ and a kcat/KM ([1]; trimer) of 177.8 ± 133.1 M⁻¹ s⁻¹. The kcat [2] was 0.0012 s⁻¹, the kcat/KM [2] was 4.44 ± 3.15 M⁻¹ s⁻¹ and the Km ([2]; read-out: KM H2O2) was 270 ± 140 µM. The Ki [2, 13] was 1.91 ± 0.48 mM, the kcat ([3]; monomer 1, 20 mM NaCl, pH7.5) was 0.0003086 s⁻¹ and the kcat/KM ([3]; monomer 1, 20 mM NaCl, pH7.5) was 34.2 ± 19.4 M⁻¹ s⁻¹. The Km ([3]; read-out: KM H2O2, monomer 1, 20 mM NaCl, pH7.5) was 9.02 µM, the Ki ([3]; read-out: Ki H2O2, monomer 1, 20 mM NaCl, pH7.5, substrate inhibition) was 34.9 ± 12.6 mM and the “inhibition by H2O2” value ([3]; result in words) was “weak inhibition”. The Km ([4]; read-out: KM H2O2) was 45 ± 15 µM, the Ki [4, 13] was 2.12 ± 1.7 mM and the kcat [4] was 0.000587 s⁻¹. The kcat/KM [4] was 13.04 ± 6.51 M⁻¹ s⁻¹, the kcat ([5]; dimer/monomer) was 0.000576 s⁻¹ and the kcat/KM ([5]; dimer/monomer) was 16.08 ± 17.15 M⁻¹ s⁻¹. For the same molecule, the kcat ([5]; excluded) was 0.0001553 s⁻¹, the kcat/KM ([5]; excluded) was 6.82 ± 4.27 M⁻¹ s⁻¹ and the Km ([5]; dimer/monomer) was 36 ± 25 µM. It also gave a Km ([5]; excluded) of 23 ± 11 µM, a Km ([5]; trimer) of 704 ± 448 µM and a Ki ([5]; dimer/monomer) of 6.3 ± 3.33 mM. For the same molecule, the Ki ([5]; excluded) was 17.3 ± 10.6 mM, the Ki ([5]; trimer) was 35.9 ± 22.2 mM and the kcat ([5]; trimer) was 0.0003 s⁻¹. For the same molecule, the kcat/KM ([5]; trimer) was 0.426 ± 0.365 M⁻¹ s⁻¹, the “inhibition by H2O2” value [6] was “weak inhibition” and the kcat ([7]; dimer/monomer) was 0.00374 s⁻¹. The kcat/KM ([7]; dimer/monomer) was 1508 ± 19.4 M⁻¹ s⁻¹ and 1508 ± 107 M⁻¹ s⁻¹, the “kss/[H2O2]” value ([7]; excluded) was 0.0051 ± 0.00035 M⁻¹ s⁻¹ and the Km ([7]; dimer/monomer) was 2.48 µM. For the same molecule, the Km ([7]; trimer) was 13 ± 1 µM, the Ki ([7]; dimer/monomer) was 4.63 ± 1.05 mM and the Ki ([7]; trimer) was 0.597 ± 0.211 mM. For the same molecule, the kcat ([7]; trimer) was 0.0047 s⁻¹ and the kcat/KM ([7]; trimer) was 361.5 ± 64.5 M⁻¹ s⁻¹.

For `N#CS` [SCN, thiocyanate], the kcat [8] was 0.31 s⁻¹, the kcat/KM [8] was 1409 M⁻¹ s⁻¹ and the Km ([8]; read-out: KM SCN) was 220 µM.

With `OC[C@H]1OC(O)[C@H](O)[C@@H](O)[C@@H]1O` (stereo partly drawn) [glucose] the kcat/KM glucose [9] was 2.47 ± 1.58 M⁻¹ s⁻¹, the kcat/KM glucose [10] was 1.1 ± 0.8 M⁻¹ s⁻¹ and the Km [11] was 3020 ± 770 µM. The kcat [11] was 3.09e-05 s⁻¹, the kss [12, 14] was “around 10^−3 s^−1” and the “kss/[Glucose]” value [12, 14] was 10^−3 M^−1·s^−1. The kcat/KM glucose ([12]; monomer 2, fixed NaCl 20 mM, pH7.5) was 2.73 ± 1.5 M⁻¹ s⁻¹.
